{"source": "patent US20130236473A1", "about": "“THERAPEUTIC AGENTS AND PROPHYLACTIC AGENTS FOR SYMPTOMS ACCOMPANYING AUTOIMMUNE DISEASES, INFLAMMATORY DISEASES, ALLERGY DISEASES AND ORGAN TRANSPLANTS” (OSAKA UNIVERSITY, priority 2010, published 2013)", "key": {"IL-6 amplifier [1]": {"tested_on": "IL-6 amplifier", "assay": "Reference Example 5: mIL-6 production on IL-6 amplifier activation with epiregulin in BC-1 cells (ELISA)", "type": "cell-based", "conditions": "24 hours, 100 ng/ml mouse epiregulin protein, conditions (e) to (h), inhibitor 0, 0.1, 1 or 10 micromoles/L", "procedure": "After the culture, the production amount of mouse IL-6 (mIL-6) protein in each of the clones, i.e., the amount of mIL-6 protein in the medium solution, was quantified by an ELISA method. In the ELISA method, anti-mIL-6 antibody and an ELISA kit, both manufactured by eBioscience, Inc., were used. In addition, a cell proliferation assay was performed for each of the clones, using a TetraColor ONE kit (Seikagaku Corporation). […]\nAfter the culture, the production amount of mouse IL-6 protein under each condition was quantified by an ELISA method in the same manner as in Reference Example 1. […]"}, "IL-6 amplifier [2]": {"tested_on": "IL-6 amplifier", "assay": "Reference Example 10: hIL-6 gene expression in human synovial fibroblasts with epiregulin (RT-PCR)", "type": "cell-based", "conditions": "3 hours, 100 ng/ml epiregulin protein, inhibitor 0 or 10 micromoles/L", "method": "In addition, the expression amounts of mIL-6 gene were quantified by a real-time RT-PCR method. The real-time RT-PCR method was performed using a GeneAmp 5700 sequence detection system (Applied Biosystems) and a SYBER green PCR Master Mix (Sigma-Aldrich Co. LLC.). The conditions of the PCR amplification were as follows: the amplification was performed in 40 cycles, each cycle consisting of thermal denaturation (94° C., 15 seconds), annealing (60° C., 30 seconds), and extension reaction (72° C., 30 seconds)). […] After the culture, the expression amount of human IL-6 gene under each condition was quantified by a RT-PCR method in the same manner as in Reference Example 9."}, "IL-6 amplifier [3]": {"tested_on": "IL-6 amplifier", "assay": "Example 1: mIL-6 protein production on IL-6 amplifier activation in BC-1 cells or MEFs (ELISA)", "type": "cell-based, mouse", "conditions": "30 min pretreatment with 0.1, 1 or 10 micromoles/L ErbB1 inhibitor, then conditions (a) to (d), 24 hours, 10% FBS", "procedure": "2×10^5 mouse BC-1 cells were cultured in an RPMI 1640 medium for 24 hours under each of the following conditions: • (a) in the presence of 10% FBS, • (b) with the addition of 50 ng/ml of hIL-6 protein and 50 ng/ml of hIL-6R protein (hereinafter referred to as “hIL-6/6R proteins”) and in the presence of 10% FBS, • (c) with the addition of 50 ng/ml of mIL-17A protein and in the presence of 10% FBS, • (d) with the addition of hIL-6/6R proteins at 50 ng/ml and mIL-17A protein at 50 ng/ml and in the presence of 10% FBS, • (e) in the absence of FBS, • (f) with the addition of hIL-6/6R proteins each at 50 ng/ml and in the absence of FBS, • (g) with the addition of 50 ng/ml of mIL-17A protein and in the absence of FBS, or • (h) with the addition of hIL-6/6R proteins each at 50 ng/ml and mIL-17A protein at 50 ng/ml and in the absence of FBS.\n2×10^5 mouse BC-1 cells or 2×10^5 mouse embryonic fibroblasts (MEFs) were cultured for 30 minutes in an RPMI 1640 medium, in the presence of 0.1, 1, or 10 micromoles/L of PD153065; or in the presence of 0.1, 1, or 10 micromoles/L of PD168393 (Calbiochem). […]\nAfter the culture, the production amount of mouse IL-6 protein under each condition was quantified by an ELISA method. […]"}, "[4]": {"tested_on": "cytokine-induced arthritis mice", "assay": "Clinical score of arthritis in cytokine-induced arthritis mice (F759 mice)", "type": "in vivo, mouse", "procedure": "On each of days 0, 1, and 2, 100 ng of mIL-6 protein and 100 ng of mIL-17A protein, as cytokines, were injected into the malleolus joints of 8-week-old F759 mice to induce arthritis. At the same time, on each of days 0 to 23, 10 micrograms of PD153035 dissolved in DMSO was injected into the malleolus joints (n=6). Mice injected with the cytokines and DMSO only (n=6), and mice injected with DMSO only (n=6) served as control groups.\nFrom day 0 to day 23, symptom of arthritis was evaluated by clinical scores. Specific examples of the evaluation are described below and in FIG. 2. Specifically, for example, the clinical score is 0 if the movable range of malleolus joint is a healthy state as shown in FIG. 14(A), and the clinical score is 3 if severe arthritis develops and the movable range of malleolus joint is 60° smaller than the healthy case as shown in FIG. 14(B). Further, the clinical score is 1 if the movable range of malleolus joint is 20° smaller than the healthy case, and the clinical score is 2 if the movable range of malleolus joint is 40° smaller than the healthy case.\nF759 mice used as cytokine-induced arthritis mice are genetically modified mice in which F759 mutation (in which tyrosine residue 759 (Y) is replaced by phenylalanine (F) in gp130 protein, a receptor of IL-6 protein, etc.) is introduced (Non-Patent Literature 3); and in F759 mice, dysregulation of IL-6 amplifier is observed (Non-Patent Literature 1). Dysregulation of IL-6 amplifier observed in F759 mice is believed to be caused as follows: SOCS3 protein signal transduction, which is dependent on the phosphorylation status of tyrosine residue 759 (Y759) of gp130 protein, is inhibited by F759 mutation, thereby decreasing the action of suppressing STAT3 signals via SOCS3 protein to enhance STAT3-dependent signals. It is known that autoimmune arthritis develops in almost 100% of the mice one to one-and-a-half years after birth. It is also known that arthritis develops earlier by injecting inflammatory cytokines, such as IL-6 and IL-17, into joints (e.g., malleolus joints) of the mice. […]"}, "IL-6 amplifier [5]": {"tested_on": "IL-6 amplifier", "assay": "Reference Example 3: effect of growth factors on mIL-6 protein production in BC-1 cells (ELISA)", "type": "cell-based, mouse", "conditions": "24 hours, hIL-6/6R and mIL-17A each 50 ng/ml, growth factor added, versus none added", "procedure": "2×10^5 mouse BC-1 cells were cultured for 24 hours in an RPMI 1640 medium containing hIL-6/6R proteins each at 50 ng/ml and mIL-17A protein at 50 ng/ml under the condition in which 100 ng/ml of mouse EGF protein (R&D Systems, Inc.), 100 ng/ml of human HB-EGF protein (R&D Systems, Inc.), 0.1, 1, 10, or 100 ng/ml of mouse epiregulin protein (R&D Systems, Inc.), 50 ng/ml of mouse VEGF protein (R&D Systems, Inc.), 50 ng/ml of mouse FGF7 protein (R&D Systems, Inc.), or 300 ng/ml of mPDGF-CC protein (R&D Systems, Inc.) was separately added. Mouse BC-1 cells cultured under the condition in which only hIL-6/6R proteins and mIL-17A protein were added served as a control group.\nAfter the culture, the production amount of mIL-6 protein under each condition was quantified by an ELISA method in the same manner as in Reference Example 1. FIGS. 5 and 6 show the results."}, "[6]": {"tested_on": "experimental autoimmune encephalomyelitis (EAE) mice", "assay": "Clinical score in experimental autoimmune encephalomyelitis (EAE) mice", "type": "in vivo, mouse", "conditions": "5 mg intraperitoneal on each of days 0 to 6, scored day 0 to 13, control DMSO", "procedure": "EAE mice were made according to the method described in Non-Patent Literature 1.\n200 micrograms of MOG (myelin oligodendrocyte glycoprotein) peptide (peptide comprising residues 33 to 55 of the full-length amino acid sequence of mouse MOG protein (amino acid sequence shown in SEQ ID NO: 9)) dissolved in Complete Freund's adjuvant (CFA) was administered to the tail of a 7- to 8-week-old C57/B6-strain mouse by subcutaneous injection, followed by intravenous injection of 200 nanograms of pertussis toxin (PTx).\nA MOG-specific CDCT cell group was obtained according to a ordinary method from the spleen removed after feeding the above mouse for 10 days. 2×10^5 cells of the MOG-specific CDCT cells were cultured with 5×10^5 C57/B6-strain mouse bone marrow-derived dendritic cells (BMDCs) pulsed with MOG peptide in an RPMI 1640 medium containing 10% FBS in the presence of 20 ng/ml of recombinant IL-23 (rIL-23) protein in an incubator at a temperature of 37° C. to obtain a cell group containing pathogenic Th17 cells. […]\nFrom day 0 to day 12, the clinical score in each mouse was evaluated according to the method described in Non-Patent Literature 1. […]\nFrom day 0 to day 13, the clinical score in each mouse was evaluated according to the method described in Non-Patent Literature 1."}, "[7]": {"conditions": "mIL-6 + mIL-17A days 0, 1, 2, 10 micrograms into malleolus joints on each of days 0 to 23, scored day 0 to 23"}}, "data": [{"molecule": "COc1cc2ncnc(Nc3cccc(Br)c3)c2cc1OC", "note": "[PD153035, 4-[(3-Bromophenyl)amino]-6,7-dimethoxyquinazoline]", "values": [{"measurement": "Increase in the amount of transcription of mIL-6 due to epiregulin protein (production amount of mouse IL-6 protein by ELISA)", "setting": "IL-6 amplifier [1]", "value": "inhibited in a manner dependent on the addition amount"}, {"measurement": "Increase in the amount of transcription of hIL-6 due to epiregulin protein", "setting": "IL-6 amplifier [2]", "value": "inhibited in a manner dependent on the addition amount"}, {"measurement": "increase in the expression amount of mIL-6 protein due to activation of IL-6 amplifier", "setting": "IL-6 amplifier [3]", "value": "can be suppressed"}, {"measurement": "symptom of arthritis (clinical score)", "setting": "[4]; [7]", "value": "symptom of cytokine-induced arthritis was alleviated, or worsening of symptom of cytokine-induced arthritis was suppressed"}]}, {"molecule": "EGF protein: mouse EGF protein (R&D Systems, Inc.), ligand of ErbB1 protein (NSYPGCPSSYDGYCLNGGVCMHIESLDSYTCNCVIGYSGDRCQTRDLRWWELR)", "values": [{"measurement": "production amount of mIL-6 protein", "setting": "IL-6 amplifier [5]", "value": "significantly (p value <0.01) increased"}]}, {"molecule": "COc1cc2ncnc(Nc3ccc(F)c(Cl)c3)c2cc1OCCCN1CCOCC1", "note": "[gefitinib, N-(3-chloro-4-fluoro-phenyl)-7-methoxy-6-(3-morpholin-4-ylpropoxy) quinazolin-4-amine]", "values": [{"measurement": "symptom of arthritis (clinical score)", "setting": "[4]; [7]", "value": "symptom of cytokine-induced arthritis was alleviated, or worsening of symptom of cytokine-induced arthritis was suppressed"}, {"measurement": "symptom of experimental autoimmune encephalomyelitis (clinical score)", "setting": "[6]", "value": "symptom of experimental autoimmune encephalomyelitis was alleviated, or worsening of symptom of experimental autoimmune encephalomyelitis was suppressed"}]}, {"molecule": "C=CC(=O)Nc1ccc2ncnc(Nc3cccc(Br)c3)c2c1", "note": "[PD168393, 4-[(3-Bromophenyl)amino]-6-acrylamidoquinazoline]", "values": [{"measurement": "increase in the expression amount of mIL-6 protein due to activation of IL-6 amplifier", "setting": "IL-6 amplifier [3]", "value": "can be suppressed"}, {"measurement": "symptom of arthritis (clinical score)", "setting": "[4]; mIL-6 + mIL-17A days 0, 1, 2, 10 micrograms into malleolus joints on each of days 0 to 11, scored day 0 to 23", "value": "symptom of cytokine-induced arthritis was alleviated, or worsening of symptom of cytokine-induced arthritis was suppressed"}]}]}
